Assay results taken from US7001983B1, “Antipathogenic synthetic peptides and compositions comprising them” (priority 1997, dated 2006).
Square brackets hold non-standard residues; d marks the D form. Peptide text beside a SMILES is read from it.

Columns and labels:
Type in all cases: cell-based
Escherichia coli D21 = conditions: 100% inhibition of growth after 18–20 h
[1] = system: Acinetobacter calcoaceticus Ac11; conditions: 100% inhibition of growth after 18–20 h
[2] = system: human red blood cells (hRBC); test: Hemolysis of human red blood cells; conditions: hRBC, 30 min at 37° C.
Description: (ix) Hemolysis of human red blood cells. The peptides were tested for their hemolytic activities against human red blood cells (hRBC). Fresh hRBC with EDTA were rinsed 3 times with PBS (35 mM phosphate buffer/0.15 M NaCl, pH 7.3) by centrifugation for 10 min at 800 g and resuspended in PBS. Peptides dissolved in PBS were then added to 50 μL of a solution of the stock hRBC in PBS to reach a final volume of 100 μL (final erythrocyte concentration, 5% v/v). The resulting suspension was incubated under agitation for 30 min at 37° C. The samples were then centrifuged at 800 g for 10 min. Release of hemoglobin was monitored by measuring the absorbance of the supernatant at 540 nm. Controls for zero hemolysis (blank) and 100% hemolysis consisted of hRBC suspended in PBS and Triton 1%, respectively.

Bacillus megaterium Bm11 = conditions: 100% inhibition of growth after 18–20 h

| SMILES | Minimal Inhibitory Concentration E. coli (D21) (Escherichia coli D21) [µM] | Minimal Inhibitory Concentration A. calcoaceticus (Ac11) [1] [µM] | % hemolysis at 50 μM peptide [2] [%] | Minimal Inhibitory Concentration B. megaterium (Bm11) (Bacillus megaterium Bm11) [µM] | % hemolysis at 100 μM [2] [%] |
| --- | --- | --- | --- | --- | --- |
| CC[C@H](C)[C@H](NC(=O)[C@H](CCCCN)NC(=O)[C@H]1CCCN1C(=O)[C@@H](NC(=O)[C@H](CC(C)C)NC(=O)[C@H](C)NC(=O)[C@H](Cc1ccccc1)NC(=O)[C@H](Cc1ccccc1)NC(=O)CN)[C@@H](C)CC)C(=O)N[C@H](C(=O)N[C@@H](CO)C(=O)N[C@@H](CO)C(=O)N1CCC[C@H]1C(=O)N[C@@H](CC(C)C)C(=O)N[C@@H](Cc1ccccc1)C(=O)N[C@@H](CCCCN)C(=O)N[C@H](C(=O)N[C@H](CC(C)C)C(=O)N[C@H](CC(C)C)C(=O)N[C@@H](CO)C(=O)N[C@@H](C)C(=O)N[C@H](C(=O)NCCN)C(C)C)[C@@H](C)O)[C@@H](C)CC [Peptide 2, [D]P^7L^18L^19[1-22]-TApar] | 12.5 | 12.5 | 0 | 2.5 |  |
| CC[C@H](C)[C@H](NC(=O)[C@H](CCCCN)NC(=O)[C@H]1CCCN1C(=O)[C@@H](NC(=O)[C@H](CC(C)C)NC(=O)[C@H](C)NC(=O)[C@H](Cc1ccccc1)NC(=O)[C@H](Cc1ccccc1)NC(=O)CNC(=O)[C@@H](N)CCCCN)[C@@H](C)CC)C(=O)N[C@H](C(=O)N[C@@H](CO)C(=O)N[C@@H](CO)C(=O)N1CCC[C@H]1C(=O)N[C@@H](CC(C)C)C(=O)N[C@@H](Cc1ccccc1)C(=O)N[C@@H](CCCCN)C(=O)N[C@H](C(=O)N[C@H](CC(C)C)C(=O)N[C@H](CC(C)C)C(=O)N[C@@H](CO)C(=O)N[C@@H](C)C(=O)N[C@H](C(=O)NCCN)C(C)C)[C@@H](C)O)[C@@H](C)CC [Peptide 4, K^1[D]P^7L^18L^19[1-22]-TApar] | 7.5 | 7.5 | 0 | 1.5 |  |
| CC[C@H](C)[C@H](NC(=O)[C@H](CCCCN)NC(=O)[C@H]1CCCN1C(=O)[C@@H](NC(=O)[C@H](CC(C)C)NC(=O)[C@H](C)NC(=O)[C@H](Cc1ccccc1)NC(=O)[C@H](Cc1ccccc1)NC(=O)CNC(=O)[C@H](CCCCN)NC(=O)[C@@H](N)CCCCN)[C@@H](C)CC)C(=O)N[C@H](C(=O)N[C@@H](CO)C(=O)N[C@@H](CO)C(=O)N1CCC[C@H]1C(=O)N[C@@H](CC(C)C)C(=O)N[C@@H](Cc1ccccc1)C(=O)N[C@@H](CCCCN)C(=O)N[C@H](C(=O)N[C@H](CC(C)C)C(=O)N[C@H](CC(C)C)C(=O)N[C@@H](CO)C(=O)N[C@@H](C)C(=O)N[C@H](C(=O)NCCN)C(C)C)[C@@H](C)O)[C@@H](C)CC [Peptide 5, K^1K^2[D]P^7L^18L^19[1-22]-TApar] | 3.5 | 3.5 | 0 | 0.75 |  |
| CC(C)C[C@H](NC(=O)[C@H](CC(C)C)NC(=O)[C@@H](CC(C)C)NC(=O)[C@H](N)CCCCN)C(=O)N[C@H](CCCCN)C(=O)N[C@H](CC(C)C)C(=O)N[C@H](CC(C)C)C(=O)N[C@@H](CC(C)C)C(=O)N[C@H](CCCCN)C(=O)N[C@@H](CC(C)C)C(=O)N[C@H](CC(C)C)C(=O)N[C@H](CCCCN)C(N)=O [Peptide 26, [D]-K^1,5,9,12L^2,6,7,11-K4L8] (H-[dK][dL]LL[dK][dL][dL]L[dK]L[dL][dK]-NH2) | 4 |  |  | 0.5 | 0 |
| CC(C)C[C@H](NC(=O)[C@H](CC(C)C)NC(=O)[C@@H](CC(C)C)NC(=O)[C@H](N)CCCCN)C(=O)N[C@H](CCCCN)C(=O)N[C@H](CC(C)C)C(=O)N[C@H](CCCCN)C(=O)N[C@@H](CC(C)C)C(=O)N[C@H](CCCCN)C(=O)N[C@@H](CC(C)C)C(=O)N[C@H](CC(C)C)C(=O)N[C@H](CCCCN)C(N)=O [Peptide 27, [D]-K^1,5,7,9,12L^2,6,11-K5L7] (H-[dK][dL]LL[dK][dL][dK]L[dK]L[dL][dK]-NH2) | 7 |  |  | 0.2 | 0 |
| CC(C)C[C@H](NC(=O)[C@@H](CC(C)C)NC(=O)[C@H](CC(C)C)NC(=O)[C@@H](CC(C)C)NC(=O)[C@@H](N)CCCCN)C(=O)N[C@@H](CCCCN)C(=O)O [Peptide 28, [D]-L^2,4-K2L4] (H-K[dL]L[dL]LK-OH) | 200 |  |  | 50 | 0 |
| CC(C)C[C@H](NC(=O)[C@@H](CC(C)C)NC(=O)[C@H](CCCCN)NC(=O)[C@@H](CC(C)C)NC(=O)[C@H](CC(C)C)NC(=O)[C@@H](CC(C)C)NC(=O)[C@@H](N)CCCCN)C(=O)N[C@@H](CCCCN)C(=O)O [Peptide 29, [D]-L^2,4,6-K3L5] (H-K[dL]L[dL]K[dL]LK-OH) | 3 |  |  | 3 | 0 |
| C[C@H](NC(=O)[C@H](C)NC(=O)[C@H](CCCCN)NC(=O)[C@@H](C)NC(=O)[C@@H](C)NC(=O)[C@H](C)NC(=O)[C@@H](N)CCCCN)C(=O)N[C@H](C)C(=O)N[C@@H](CCCCN)C(=O)N[C@H](C)C(=O)N[C@@H](C)C(=O)N[C@@H](CCCCN)C(N)=O [Peptide 33, [D]-A^3,4,8,10-K4A8] (H-KA[dA][dA]KAA[dA]K[dA]AK-NH2) | 12 |  |  | 1 | 0 |
| CC(C)[C@H](NC(=O)[C@H](CCCCN)NC(=O)[C@H](NC(=O)[C@H](NC(=O)[C@@H](NC(=O)[C@@H](N)CCCCN)C(C)C)C(C)C)C(C)C)C(=O)N[C@H](C(=O)N[C@@H](C(=O)N[C@@H](CCCCN)C(=O)N[C@@H](C(=O)N[C@H](C(=O)N[C@@H](CCCCN)C(N)=O)C(C)C)C(C)C)C(C)C)C(C)C [Peptide 34, [D]-V^3,4,8,10-K4V8] (H-KV[dV][dV]KVV[dV]K[dV]VK-NH2) | 3.5 |  |  | 0.8 | 0 |
| CC[C@H](C)[C@@H]1NC(=O)[C@H](CCCCN)NC(=O)[C@H]2CCCN2C(=O)[C@H]([C@@H](C)CC)NC(=O)[C@H](CC(C)C)NC(=O)[C@H](C)NC(=O)[C@H](Cc2ccccc2)NC(=O)[C@H](Cc2ccccc2)NC(=O)CNC(=O)[C@H](CCCCN)NC(=O)[C@@H](N)CSSC[C@@H](C(=O)O)NC(=O)[C@H](C(C)C)NC(=O)[C@H](C)NC(=O)[C@H](CO)NC(=O)[C@@H](CC(C)C)NC(=O)[C@@H](CC(C)C)NC(=O)[C@H]([C@@H](C)O)NC(=O)[C@H](CCCCN)NC(=O)[C@H](Cc2ccccc2)NC(=O)[C@H](CC(C)C)NC(=O)[C@@H]2CCCN2C(=O)[C@H](CO)NC(=O)[C@H](CO)NC(=O)[C@H]([C@@H](C)CC)NC1=O [Peptide 86, Cyclic K^1[D]P^7L^18L^19[1-22]-par] | 30 |  |  | 10 | 0 |
| CC[C@H](C)[C@@H]1NC(=O)[C@H](CCCCN)NC(=O)[C@H]2CCCN2C(=O)[C@H]([C@@H](C)CC)NC(=O)[C@H](CC(C)C)NC(=O)[C@H](C)NC(=O)[C@H](Cc2ccccc2)NC(=O)[C@H](Cc2ccccc2)NC(=O)CNC(=O)[C@H](CCCCN)NC(=O)[C@H](CCCCN)NC(=O)[C@@H](N)CSSC[C@@H](C(=O)O)NC(=O)[C@H](C(C)C)NC(=O)[C@H](C)NC(=O)[C@H](CO)NC(=O)[C@@H](CC(C)C)NC(=O)[C@@H](CC(C)C)NC(=O)[C@H]([C@@H](C)O)NC(=O)[C@H](CCCCN)NC(=O)[C@H](Cc2ccccc2)NC(=O)[C@H](CC(C)C)NC(=O)[C@@H]2CCCN2C(=O)[C@H](CO)NC(=O)[C@H](CO)NC(=O)[C@H]([C@@H](C)CC)NC1=O [Peptide 87, Cyclic K^1K^2[D]P^7L^18L^19[1-22]-par] | 15 |  |  | 6 | 0 |
| CC[C@H](C)[C@@H]1NC(=O)[C@H](CCCCN)NC(=O)[C@H]2CCCN2C(=O)[C@H]([C@@H](C)CC)NC(=O)[C@H](CC(C)C)NC(=O)[C@H](C)NC(=O)[C@H](Cc2ccccc2)NC(=O)[C@H](Cc2ccccc2)NC(=O)CNC(=O)[C@H](CCCCN)NC(=O)[C@H](CCCCN)NC(=O)[C@H](CCCCN)NC(=O)[C@@H](N)CSSC[C@@H](C(=O)O)NC(=O)[C@H](C(C)C)NC(=O)[C@H](C)NC(=O)[C@H](CO)NC(=O)[C@@H](CC(C)C)NC(=O)[C@@H](CC(C)C)NC(=O)[C@H]([C@@H](C)O)NC(=O)[C@H](CCCCN)NC(=O)[C@H](Cc2ccccc2)NC(=O)[C@H](CC(C)C)NC(=O)[C@@H]2CCCN2C(=O)[C@H](CO)NC(=O)[C@H](CO)NC(=O)[C@H]([C@@H](C)CC)NC1=O [Peptide 88, Cyclic K^1K^2K^3[D]P^7L^18L^19[1-22]-par] | 7.5 |  |  | 2 | 0 |
